Read-outs that look alike come from different tables or passages of the source.
Columns and labels:
[1] = test system: bromodomain; experiment: at least one of the bromodomain cell assays of Example 57; format: cell-based; details: at least one of the bromodomain cell assays described in Example 57; read-out: IC50 in at least one of the bromodomain cell assays
[2] = test system: MV-4-11 cells; experiment: Oncology cell growth assay MV-4-11 (CellTiter Glo); format: cell-based; details: Homo sapiens, MV4-11, 72 h, read-out: Cell activity (IC50 μM) MV-4-11 3d-Growth
Method in brief: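 MV-4-11 AML cells (MLL-AF4), 3000 per well, exposed to 8-point 1:3 compound titration from 10 μM top concentration (0.2% DMSO) for 72 h. Viability by CellTiter Glo luminescence, normalized to DMSO controls; pIC50 from four-parameter curve fit.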

[3] = molecular target: BRD4-BD12 (1-477) (Homo sapiens (Human), UniProt O60885); experiment: Alphascreen binding assay BRD4-BD12; details: BRD4(1 2) H4; read-out: Biochemical activity (IC50 μM) BRD4(1 2) H4
Method in brief: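 First, compound was preincubated 1 h at room temperature with the His-tagged BRD4 protein (BD1 44-164 or tandem BD12 1-477) and acetylated H4 peptide. Next, donor and acceptor beads were added at 7.5 μg/ml final. After 30 min, AlphaScreen emission was recorded.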

SMILES | IC50 [1] [µM] | IC50 ([2]; MV-4-11, 3d growth) [µM] | IC50 [3] [µM] | IC50 [2] [µM]
COC(=O)c1ccc(-c2cn(CC3CC4(CCC4)C3)c3cc(-c4c(C)noc4C)cnc23)cc1 [P-0602, methyl 4-[6-(3,5-dimethylisoxazol-4-yl)-1-(spiro[3.3]heptan-6-ylmethyl)pyrrolo[3,2-b]pyridin-3-yl]benzoate] | < 10 | < 1 | < 1 | –
Cc1noc(C)c1-c1cnc2c(-c3ccc(C(=O)O)cc3)cn([C@@H](C)c3ccccc3)c2c1 [P-0560, 4-[6-(3,5-dimethylisoxazol-4-yl)-1-[(1S)-1-phenylethyl]pyrrolo[3,2-b]pyridin-3-yl]benzoic acid] | < 10 | < 1 | < 1 | –
Cc1noc(C)c1-c1cnc2c(I)cn(Cc3cccnn3)c2c1 [P-0528, 4-[3-iodo-1-(pyridazin-3-ylmethyl)pyrrolo[3,2-b]pyridin-6-yl]-3,5-dimethyl-isoxazole] | < 10 | < 1 | < 1 | –
Cc1noc(C)c1-c1cnc2c(-c3ccc(C(=O)OC(C)(C)C)cc3)cn(S(=O)(=O)c3ccccc3)c2c1 [P-0374, tert-butyl 4-[1-(benzenesulfonyl)-6-(3,5-dimethylisoxazol-4-yl)pyrrolo[3,2-b]pyridin-3-yl]benzoate] | < 10 | – | 1 to 10 | 10 to 200
Cc1noc(C)c1-c1cnc2c(-c3ccc(C4(C(=O)O)CC4)cc3)cn(CC3CCC(F)(F)CC3)c2c1 [P-0412, 1-[4-[1-[(4,4-difluorocyclohexyl)methyl]-6-(3,5-dimethylisoxazol-4-yl)pyrrolo[3,2-b]pyridin-3-yl]phenyl]cyclopropanecarboxylic acid] | < 10 | – | < 1 | < 1
Cn1cc(-c2cnc3c(-c4cnn(CC(F)(F)F)c4)cn(CC4CCC(F)(F)CC4)c3c2)ccc1=O [P-0436, 5-[1-[(4,4-difluorocyclohexyl)methyl]-3-[1-(2,2,2-trifluoroethyl)pyrazol-4-yl]pyrrolo[3,2-b]pyridin-6-yl]-1-methyl-pyridin-2-one] | < 10 | < 1 | < 1 | –
Cc1noc(C)c1-c1cnc2c(-c3ccc4[nH]c(=O)[nH]c4c3)cn(CC3(F)CCCCC3)c2c1 [P-0498, 5-[6-(3,5-dimethylisoxazol-4-yl)-1-[(1-fluorocyclohexyl)methyl]pyrrolo[3,2-b]pyridin-3-yl]-1,3-dihydrobenzimidazol-2-one] | < 10 | < 1 | < 1 | –
Cc1noc(C)c1-c1cnc2c(-c3cccnc3)cn(CC3CCC(F)(F)CC3)c2c1 [P-0388, 4-[1-[(4,4-difluorocyclohexyl)methyl]-3-(3-pyridyl)pyrrolo[3,2-b]pyridin-6-yl]-3,5-dimethyl-isoxazole] | < 10 | – | < 1 | < 1
COC(=O)c1ccc(-c2cn(CC3CCC(F)(F)CC3)c3cc(-c4c(C)noc4C)cnc23)cn1 [P-0418, methyl 5-[1-[(4,4-difluorocyclohexyl)methyl]-6-(3,5-dimethylisoxazol-4-yl)pyrrolo[3,2-b]pyridin-3-yl]pyridine-2-carboxylate] | < 10 | – | < 1 | < 1
Cc1noc(C)c1-c1cnc2c(c1)c(CC1CCC(F)(F)CC1)cn2-c1ccc(C(=O)O)cc1F [P-0442, 4-[3-[(4,4-difluorocyclohexyl)methyl]-5-(3,5-dimethylisoxazol-4-yl)pyrrolo[2,3-b]pyridin-1-yl]-3-fluoro-benzoic acid] | < 10 | < 1 | < 1 | –
Cc1noc(C)c1-c1cnc2c(I)cn(CC3CCCCCCC3)c2c1 [P-0577, 4-[1-(cyclooctylmethyl)-3-iodo-pyrrolo[3,2-b]pyridin-6-yl]-3,5-dimethyl-isoxazole] | < 10 | < 1 | < 1 | –
Cc1nnc(C)n1-c1cnc2c(-c3ccc(C(=O)O)cc3)cn(CC3CCC(F)(F)CC3)c2c1 [P-0420, 4-[1-[(4,4-difluorocyclohexyl)methyl]-6-(3,5-dimethyl-1,2,4-triazol-4-yl)pyrrolo[3,2-b]pyridin-3-yl]benzoic acid] | < 10 | – | < 1 | 10 to 200
[2H]C([2H])(C1CCC(F)(F)CC1)n1cc(-c2cnc(OC)nc2)c2ncc(-c3c(C)noc3C)cc21 [P-0346, 4-[1-[dideuterio-(4,4-difluorocyclohexyl)methyl]-3-(2-methoxypyrimidin-5-yl)pyrrolo[3,2-b]pyridin-6-yl]-3,5-dimethyl-isoxazole] | < 10 | – | < 1 | < 1
COC(=O)c1ccc(-c2cn(CC3CCCCCCC3)c3cc(-c4c(C)noc4C)cnc23)cc1 [P-0578, methyl 4-[1-(cyclooctylmethyl)-6-(3,5-dimethylisoxazol-4-yl)pyrrolo[3,2-b]pyridin-3-yl]benzoate] | < 10 | 1 to 10 | < 1 | –
Cc1noc(C)c1-c1cnc2c(-c3ccc(C(=O)O)cc3)cn(Cc3cccnn3)c2c1 [P-0540, 4-[6-(3,5-dimethylisoxazol-4-yl)-1-(pyridazin-3-ylmethyl)pyrrolo[3,2-b]pyridin-3-yl]benzoic acid] | < 10 | < 1 | < 1 | –
[2H]C([2H])(C1CC(F)(F)C1)n1cc(-c2cnn(CCF)c2)c2ncc(-c3c(C)noc3C)cc21 [P-0258, 4-[1-[dideuterio-(3,3-difluorocyclobutyl)methyl]-3-[1-(2-fluoroethyl)pyrazol-4-yl]pyrrolo[3,2-b]pyridin-6-yl]-3,5-dimethyl-isoxazole] | < 10 | – | < 1 | < 1
Cc1noc(C)c1-c1cnc2c(-c3cnn(CC(F)(F)F)c3)cn(Cc3ccc(F)cc3)c2c1 [P-0366, 4-[1-[(4-fluorophenyl)methyl]-3-[l-(2,2,2-trifluoroethyl)pyrazol-4-yl]pyrrolo[3,2-b]pyridin-6-yl]-3,5-dimethyl-isoxazole] | < 10 | – | < 1 | < 1
Cc1noc(C)c1-c1cnc2c(-c3cccc(O)c3)cn(CC3(F)CCCCC3)c2c1 [P-0488, 3-[6-(3,5-dimethylisoxazol-4-yl)-1-[(1-fluorocyclohexyl)methyl]pyrrolo[3,2-b]pyridin-3-yl]phenol] | < 10 | < 1 | < 1 | –
COc1cc(-c2cn(CC3(C)CCOCC3)c3cc(-c4c(C)noc4C)cnc23)ccc1C(=O)O [P-0775, 4-[6-(3,5-dimethylisoxazol-4-yl)-1-[(4-methyltetrahydrpyran-4-yl)methyl]pyrrolo[3,2-b]pyridin-3-yl]-2-methoxy-benzoic acid] | < 10 | < 1 | < 1 | –
Cc1noc(C)c1-c1cnc2c(-c3ccc(C(=O)O)cc3)cn(CC3(F)CCCCC3)c2c1 [P-0367, 4-[6-(3,5-dimethylisoxazol-4-yl)-1-[(1-fluorocyclohexyl)methyl]pyrrolo[3,2-b]pyridin-3-yl]benzoic acid] | < 10 | – | < 1 | < 1
Cc1ccc(-c2cn(Cc3ccccn3)c3cc(-c4c(C)noc4C)cnc23)cc1 [P-0805, 3,5-dimethyl-4-[3-(p-tolyl)-1-(2-pyridylmethyl)pyrrolo[3,2-b]pyridin-6-yl]isoxazole] | < 10 | < 1 | < 1 | –

From patent US10519177B2, “Heterocyclic compounds and uses thereof” (Plexxikon Inc., priority 2013, dated 2019)
